Measurements: patent US8163804B2 (priority 2005, dated 2012)
Like-named read-outs stand apart in the source and are kept apart here.

Key:
[1] = tested on: Small Brown Planthopper (Laodelphax striatellus); assay: Insecticidal test on small brown planthopper, sprayed rice seedlings, mortality after 6 days; type: in vivo; conditions: 3 ppm, sprayed rice seedlings, 6 days after treatment
Description: Insecticidal Test on Small Brown Planthopper (Laodelphax striatellus)
A liquid chemical which was diluted and prepared to the prescribed concentration was sprayed on rice seedlings (cultivar: koshihikari), air-dried, and then 10 three-stage insects of Laodelphax striatellus were put into a glass test tube having a diameter of 3 cm and a height of 10 cm along with the seedlings. The test tube was cotton plugged. After 6 days from the treatment, the number of surviving insects was examined and the mortality was calculated (two replications of 10 insects per plot).

[2] = tested on: 2-spotted Spider Mite (Tetranychus urticae); assay: Insecticidal test on 2-spotted spider mite, kidney bean leaf disc with eggs, hatchability of larvae after 6 days; type: in vivo; conditions: 50 ppm; 6 days after spraying
Description: Insecticidal Test on 2-spotted Spider Mite (Tetranychus urticae)
A plastic cup having a diameter of 8 cm was filled with water and covered by a lid with a hole having a diameter of 1 cm. Absorbent cotton was put on the top of the lid and dropped into water from the lid such that the absorbent cotton was always in a wet state due to a capillary phenomenon. A leaf disc having a diameter of 2 cm was prepared with primary leaves of kidney beans (cultivar: Green top) and placed on the aforementioned absorbent cotton. 4 adult female insects of Tetranychus urticae were inoculated thereon. Next day, the adult female insects were removed, and then the number of insect egg was examined. A liquid chemical which was prepared to the prescribed concentration was sprayed by using a vertical sprayer. After spraying, the resulting cup was allowed to stand in an isothermal chamber maintained at 25 degree centigrade. After 6 days from spraying, the number of hatched larvae that survived on the leaf disc was examined and the hatchability of larvae was calculated (two replications of one concentration per chemical).

[3] = tested on: Oriental Fruit Moth (Grapholita molesta); assay: Control test on oriental fruit moth of pear, spray, rate of infected fruit after 40 days; type: in vivo; conditions: 50 ppm; 40 days after spraying
Description: (§1) Control Test on Oriental Fruit Moth (Grapholita molesta) and Scab (Venturia nashicola) of Pear
(§2) A liquid chemical which was prepared to the prescribed concentration was sufficiently sprayed on 17-year-old pears (cultivar: Hosui) (early June). After 40 days from spraying, the number of infected fruits due to Grapholita molesta was examined for all fruit in the plot, and the rate of infected fruit was calculated. Furthermore, after 14 days from spraying, infection of Venturia nashicola was examined by the degrees for optional 200 leaves in the plot and the severity index was calculated according to the following equation. Severity index=Z(number of infected leaves by the degrees×index)×100/(number of examined leaves×5)

[4] = tested on: Clubroot (Plasmodiophora brassicae); assay: Control test on clubroot of cabbage, soil treatment, control value after 60 days; type: in vivo; conditions: 100 gai/10a; 60 days after treatment
Description: (§3) Control Test on Turnip Moth (Agrotis segetum) and Clubroot (Plasmodiophora brassicae) of Cabbage due to Soil Treatment
(§4) A powder in a prescribed amount was mixed to soil and cabbages (cultivar: shiki-kaku) cultured on a cell medium were planted out. After 7 days from the treatment, the number of infected stumps due to Agrotis segetum was examined and the rate of infected stumps was calculated. Furthermore, after 60 days from the treatment, stumps were picked out, and lesion formation of Plasmodiophora brassicase was examined according to the degrees of severity. The control value was calculated from the average severity index of each plot according to the following equation. In the Table, gai represents the amount of active ingredients (g).
Severity Index • 0: No clubroot attached • 1: Clubroot was attached at a portion of from 1 to 25% of the whole root • 2: Clubroot was attached at a portion of from 25 to 50% of the whole root • 3: Clubroot was attached at a portion of from 50 to 75% of the whole root • 4: Clubroot was attached at a portion of from 75% or more of the whole root Control Value=(1−average severity in the treated plot/average severity in the untreated plot)×100

[5] = tested on: Tiger Moth (Trichoplusia ni); assay: Insecticidal test on tiger moth, cabbage leaf dip, mortality after 6 days; type: in vivo; conditions: 0.5 ppm; 6 days after treatment
Description: Insecticidal Test on Tiger Moth (Trichoplusia ni)
Cut leaves of cabbages (cultivar: shiki-kaku) were immersed in a liquid chemical which was diluted and prepared to the prescribed concentration for 30 seconds, air-dried, and then put into a plastic vessel having a diameter of 9 cm. Each of 10 second-stage insects of Trichoplusia ni was inoculated and the resulting vessel was allowed to stand in an isothermal chamber maintained at 25 degree centigrade. After 6 days from the treatment, the number of surviving insects was examined and the mortality was calculated (two replications of 10 insects per plot).

[6] = tested on: Common Straight Swift Butterfly (Parnara guttata); assay: Control test on common straight swift butterfly of paddy rice, powder spray, number of insects after 20 days (Test Example 9); type: in vivo; conditions: 20 gai/10a; 20 days after spraying
Description: (§5) Control Test on Common Straight Swift Butterfly (Parnara guttata) and Sheath Blight (Rhizoctonia solani) of Paddy Rice
(§6) A powder of a prescribed amount was sprayed on rice (cultivar: koshihikari) after 70 days from the transplantation (middle of May) Leaves on which Parnara guttata was parasitic before spraying were eliminated. After 20 days from spraying, the number of insects was examined for 100 stumps in each plot. Furthermore, 7 days before spraying, Rhizoctonia solani cultured on a bran medium was inoculated into the base of the plant. After 30 days from spraying, the number of infected stumps was examined for 100 stumps in each plot and the rate of infected stumps was calculated. In the Table, gai represents the amount of active ingredients (g).

[7] = tested on: Common Straight Swift Butterfly (Parnara guttata); assay: Control test on common straight swift butterfly of paddy rice, powder spray, number of insects after 20 days (Test Example 8); type: in vivo; conditions: 20 gai/10a; 20 days after spraying
[8] = tested on: Turnip Moth (Agrotis segetum); assay: Control test on turnip moth of cabbage, soil treatment, rate of infected stumps after 7 days; type: in vivo; conditions: 100 gai/10a; 7 days after treatment
Description: as §3, §4

[9] = tested on: Powdery Mildew (Sphaerotheca fuliginea); assay: Control test on powdery mildew of cucumbers, spray, control value from severity index; type: in vivo; conditions: 10 ppm
Description: (§7) Insecticidal Test on Cucumber Moth (Diaphania indica) and Control Test on Powdery Mildew (Sphaerotheca fuliginea) of Cucumbers
(§8) A liquid chemical which was prepared to the prescribed concentration was sufficiently sprayed on cucumbers (cultivar: sagami-hanpaku) cultured in a greenhouse. After 7 days from spraying, leaves were cut off and put into a plastic cup (diameter: 10 cm, height: 10 cm) along with 5 of second-stage larvae of Diaphania indica, and the mortality was examined 4 days thereafter. Furthermore, 1 day after spraying, the leaves of cucumbers which were previously arranged to be infected by pathogen were uniformly wiped with Sphaerotheca fuliginea thereon using a paintbrush for inoculation and examined after 10 days thereafter. The area occupied by lesion per leaf of cucumber was examined in accordance with the following index, and the control value was calculated from the average severity index of each plot according to the following equation (two replications).
Severity Index • 0: No lesion • 1: Lesion area was not more than 5% • 2: Lesion area was from 6 to 25% • 3: Lesion area was from 26 to 50% • 4: Lesion area was not less than 51% Control Value=(1−average severity in the treated plot/average severity in the untreated plot)×100

[10] = tested on: Rice Blast (Pyricularia oryzae); type: in vivo; conditions: in vivo
[11] = tested on: Green Peach Aphid (Myzus persicae); type: in vivo; conditions: 3 ppm, foliar spray on eggplant, 5 days after spraying
[12] = tested on: Resistant Cotton Melon Aphid (Aphis gossypii); type: in vivo; conditions: 3 ppm, foliar spray on cucumber, 5 days after spraying
[13] = tested on: Sheath Blight (Rhizoctonia solani); assay: Control test on sheath blight of paddy rice, powder spray, rate of infected stumps after 30 days; type: in vivo; conditions: 20 gai/10a; 30 days after spraying
Description: as §5, §6

[14] = tested on: Scab (Venturia nashicola); assay: Control test on scab of pear, spray, severity index after 14 days; type: in vivo; conditions: 50 ppm; 14 days after spraying
Description: as §1, §2

[15] = tested on: Cucumber Moth (Diaphania indica); assay: Insecticidal test on cucumber moth, sprayed cucumber leaves, mortality; type: in vivo; conditions: 10 ppm
Description: as §7, §8

[16] = tested on: Rice Striped Stem Borer (Chilo suppressalis); conditions: 5 gai/box
[17] = tested on: Rice Blast (Pyricularia oryzae); type: in vivo; conditions: in vivo; remark: listed apart in the source
[18] = tested on: Small Brown Planthopper (Laodelphax striatellus); assay: Control test on small brown planthopper, nursery box application of paddy rice, number of parasitic insects after 40 and 60 days; type: in vivo; conditions: 5 gai/box
Description: (§9) Control Test on Small Brown Planthopper (Laodelphax striatellus) and Rice Leafroller (Cnaphalocrocis medinalis) on Nursery Box Application of Paddy Rice
(§10) Rice (cultivar: Nihonbare) cultured in a nursery box was treated with 50 g of a granule formulation per box, and then transplanted to the rice field. For the control effect against Laodelphax striatellus, the number of parasitic insects was examined for 30 stumps per plot after 40 days and 60 days from the transplantation. In addition, for the control effect against Cnaphalocrocis medinalis, the number of infected leaves was examined for 100 stumps per plot after 50 days from the transplantation, and the infected leaf rate was calculated. In the Table, gai represents the amount of active ingredients (g).

[19] = tested on: Rice Leafroller (Cnaphalocrocis medinalis); assay: Control test on rice leafroller, nursery box application of paddy rice, infected leaf rate after 50 days; type: in vivo; conditions: 5 gai/box; 50 days after transplantation
Description: as §9, §10

SMILES	Mortality (%) [1]	Hatchability of larvae (%) [2]	Grapholita molesta Infected fruit rate (%) [3]	Plasmodiophora brassicae Control value [4]	Mortality (%) [5]	Number of insects (number/100 stumps) [6]	Number (insects/100 stumps) [7]	Agrotis segetum Infected stump rate (%) [8]	Sphaerotheca fuliginea Control value [9]	Pyricularia oryzae Control value [10]	Control rate (%) [11]	Control rate (%) [12]	Rate of infected stumps (%) [13]	Venturia nashicola Severity index [14]	Diaphania indica Mortality (%) [15]	Chilo suppressalis Mortality (%) [16]	Pyricularia oryzae Control value [17]	Laodelphax striatellus Number of parasitic insects/30 stumps ([18]; 40 days)	Laodelphax striatellus Number of parasitic insects/30 stumps ([18]; 60 days)	Cnaphalocrocis medinalis Infected leaf rate (%) [19]
Cc1cc(C(F)(C(F)(F)F)C(F)(F)F)cc(C)c1NC(=O)c1cccc(N(C)C(=O)c2ccccc2)c1F [Compound 1208]	10%	78%	1.9%	9	75%	1 number/100 stumps	1 insects/100 stumps	2.8%	0	5	20%	18%	99%	52.4	95%					
Cc1cc(C(F)(C(F)(F)F)C(F)(F)F)cc(C)c1NC(=O)c1cccc(N(C)C(=O)c2cccnc2Cl)c1F [Compound 1245]	5%	85%	2.8%	6	70%	2 number/100 stumps	2 insects/100 stumps	2.8%	0	0	12%	15%	98%	51.6	90%	95%	0	82 insects/30 stumps	140 insects/30 stumps	0.32%
